Each structure is given as a SMILES string. Entries after “also recorded” stand apart in the source; their conditions may differ. Like-named read-outs stand apart in the source and are kept apart here.

Consider two compounds from patent US20170042878A1 (THE GENERAL HOSPITAL CORPORATION, priority 2012, published 2017).

The subject of data set [1] is C57BL/6N mice. The data set can be described thus: Two-day forced swim test (FST) in mice. It is filed as in vivo, mouse. Here is the method:
(§1) Male 10 week C57BL/6N mice (Taconic) acclimated to a holding facility one week prior to testing. A two-day FST paradigm was employed, in which mice were exposed to a 10 minute test in absence of drug, and tested the following day in presence of drug in a 6 minute test. […] All animals were drug naïve and not previously exposed to behavioral testing.
Male C57BL6N/Tac mice were purchased from Taconic Farms (Germantown, N.Y.) at 10 weeks of age. Mice were housed four mice per cage upon arrival under a 12:12 h light/dark cycle and were allowed to acclimate for approximately one week prior to behavioral procedures. Food and water were provided ad libitum. All procedures followed the National Institutes of Health Guide for the Care and Use of Laboratory Animals, and were approved by the Massachusetts Institute of Technology Animal Care and Use Committee.
Mice were tested in a two day forced swim test (FST) procedure. On day 1, all mice received mock intraperitoneal vehicle (i.p.) injections to acclimate to the injection procedure and, 30 minutes later, were placed into one of five identical cylindrical chambers (24 cm×15 cm) filled approximately halfway with warm water (26)±2° for 10 minutes with no data collected. On day 2, mice received i.p. injections 30 minutes prior to being placed in a cylinder for a 6 minute session and immobility time was scored automatically (EthoVisionXT; Noldus Information Technology; Wageningen, Netherlands) during the final 4 minutes.
For all FST behavioral experiments, the time spent immobile was the dependent variable, and data were analyzed by one-way analysis of variance (ANOVA) and Tukey post-hoc comparisons using SPSS v. 18 (IBM).

The next data set concerns depressed patients. To be noted: cited from earlier work.
For data set [2], the system named is mice. To be noted: cited from earlier work.
In data set [3] the test system is rats. Conditions: cited from earlier work.
The test system of another data set is BDNF. Conditions: ketamine sub-anesthetic doses; correlated with antidepressant effect; cited from earlier work.
In the next data set the test system is mTOR pathway. Conditions: ketamine 5 and 10 mg/kg i.p., cited from earlier work.
The conditions of data set [4]: in vivo; cited from earlier work.
The next data set relates to rabbit. Conditions: drugs injected immediately after completion of daily training sessions; cited from earlier work.
For data set [5] the following is noted: ketamine injection 1 mg/kg; cited from earlier work.
Data set [6] relates to C57BL/6N mice. Kind of data set: Home cage observation of motor activation after administration, prior to FST. Conditions: scopolamine 0.5 and 1.0 mg/kg i.p. As to the method: as §1
A dose at the low end of this range was selected (3 mg/kg i.p.) and administered to adult male C57BL/6N mice 30 min prior to the FST.

For data set [7], the system named is mice. Conditions: scopolamine single administration 0.1 or 0.2 mg/kg i.p.; P<0.01 or P<0.001; cited from earlier work.
For another data set, the system named is mTOR signaling. Conditions: cited from earlier work.
The next data set concerns NMDA receptor 1A. To be noted: rat, in vivo; cited from earlier work.
The test system of another data set is NMDA receptor 2A. To be noted: rat, in vivo; cited from earlier work.
For data set [8], the system named is rats. Conditions: rat, in vivo; cited from earlier work.

Consider `CNC1(c2ccccc2Cl)CCCCC1=O` (stereo not shown) [ketamine], for which the “reduction in immobility versus vehicle” value in the data set with C57BL/6N mice [1] (ketamine 3 mg/kg i.p. 30 min prior to FST, modest and non-significant, FIG. 1) is recorded as 18%. Besides, the “effect on FST immobility time versus vehicle” value with C57BL/6N mice [1] (ketamine 3 mg/kg i.p. 30 minutes prior to testing, p>0.05, FIG. 1) is reported as “modest non-significant antidepressant effect; also recorded: did not significantly reduce immobility time”. The “persistence of improvement in depression ratings” value in the data set on depressed patients (ketamine single intravenous infusion 0.5 mg/kg (Zarate et al., 2006)) is listed as “approximately 1 week”. In the data set on depressed patients (ketamine single intravenous infusion 0.5 mg/kg), the “time to significant improvement in depression ratings after administration” value was 1 to 2 h. Further, the “antidepressant effect in the FST” value with mice [2] (ketamine 3 mg/kg i.p., within 30 minutes, mouse models of depression (Autry et al., 2011)) is “exhibited an antidepressant effect”. The “forced swim test immobility time versus vehicle” value with rats [3] (ketamine 10 or 15 mg/kg i.p. (Garcia et al., 2008)) is on record as “reduced forced swim test immobility time”; with rats [3] (ketamine anesthetic dose 160 mg/kg i.p., tested 3, 7, or 10 days after treatment (Yilmaz et al., 2002)), “significantly decreased”. Also, the “forced swim test effect” value in the data set on rats [3] (ketamine anesthetic dose 80 mg/kg i.p., immediately after treatment (Li et al., 2010)) is given as “no effect”. Also, in the data set with BDNF, the “levels of BDNF in the hippocampus” value is “increased levels of BDNF”. Besides, in the data set on mTOR pathway (at 24 hours), the “mature dendritic spines of medial PFC pyramidal neurons and serotonin-mediated cortical neurotransmission” value is listed as “concomitant increases”. The “levels of pre- and postsynaptic proteins” value in the data set with mTOR pathway (two hours after treatment) is “increased levels”. Also, the “phosphorylation and activation of mTOR pathway molecules in synaptoneurosomes from prefrontal cortex” value in the data set with mTOR pathway (within one hour of treatment) is “increase phosphorylation and activate several molecules in the mTOR pathway”. In addition, the “recognition memory aspect of task performance” value in data set [4] is listed as “dose-dependent impairment”. For the same compound, the “effect on conditioning of the nictitating membrane response” value with rabbit was “accelerates”. The cerebral vasodilatation result in data set [5] is “significant cerebral vasodilatation”.

With `CN1[C@@H]2C[C@@H](OC(=O)[C@H](CO)c3ccccc3)C[C@H]1[C@@H]1O[C@@H]12` [scopolamine], the “effect on FST immobility time versus vehicle” value in the data set with C57BL/6N mice [1] (scopolamine 0.1 mg/kg i.p., p>0.05, FIG. 2) is recorded as “no change in immobility time versus vehicle; also recorded: did not significantly reduce immobility time”. Besides, the “effect on FST immobility time versus vehicle” value in the data set on C57BL/6N mice [1] (scopolamine 0.5 mg/kg and 1.0 mg/kg i.p., p<0.05, likely due to non-specific motor activation, FIG. 2) is given as “substantially reduced immobility time”. Besides, in the data set with C57BL/6N mice [6], the “motor activation in the home cage after administration” value is given as “noticeably hyperactive; also recorded: visibly hyperactive”. For the same compound, the “time after which patients report improvement” value in the data set on depressed patients (scopolamine 0.004 mg/kg infusion (Furey and Drevets, 2006)) is reported as “approximately 24 hours”. Also, in the data set on depressed patients (scopolamine 0.004 mg/kg infusion, assessed 3 days after treatment), the “clinical outcome in depressed patients” value is reported as “clinical improvement”. Also, the “immobility times in the tail suspension test versus vehicle” value in the data set on mice [7] is “decreased immobility times”. Moreover, the “immobility times in the forced swim test versus vehicle” value in the data set on mice [2] (scopolamine single administration 0.1 or 0.2 mg/kg i.p., both P<0.001) is “decreased immobility times”. For the same compound, the “effect on antidepressant effects of desipramine and nomifensine in the forced swim test” value in the data set on rats [3] (scopolamine 0.5-1.0 mg/kg i.p., desipramine 20 or 30 mg/kg i.p., nomifensine 2.5 or 5 mg/kg i.p. (Mancinelli et al., 1988)) is “potentiated the antidepressant effects”. The mTOR signaling result in the data set on mTOR signaling is “rapidly activate mTOR signaling”. Also, the “expression of NMDA receptor 1A” value with NMDA receptor 1A is recorded as “decrease expression”. Besides, the “expression of NMDA receptor 2A” value in the data set on NMDA receptor 2A is on record as “decrease expression”. In data set [4], the “incremental acquisition aspect of task performance” value was “dose x difficulty related impairment” and the “recognition memory aspect of task performance” value is on record as “dose x difficulty related impairment”. The “effect on conditioning of the nictitating membrane response” value in the data set on rabbit is given as “retards”. In addition, the “effect on ketamine-induced cerebral vasodilatation” value in [5] is recorded as “blocked”. Also, the adult neurogenesis result with rats [8] is recorded as “suppress adult neurogenesis”.
